Where two headings read alike, the source gives them in different places.
Columns and labels:
[1] = target: T1, human androgen receptor (AR) (Homo sapiens, UniProt P10275); test: Co-transfection assay, AR agonist and antagonist activity, CV-1 cells (pRShAR); assay type: cell-based; conditions: for AR Agonist CV-1 Cells Efficacy (%): agonist mode, relative to DHT; for AR Antagonist CV-1 Cells Efficacy (%): % maximal inhibition
T1 construct: expressed in transfected cells; host or cells: CV-1 cells, transient transfection
T1 sequence (P10275 1-920): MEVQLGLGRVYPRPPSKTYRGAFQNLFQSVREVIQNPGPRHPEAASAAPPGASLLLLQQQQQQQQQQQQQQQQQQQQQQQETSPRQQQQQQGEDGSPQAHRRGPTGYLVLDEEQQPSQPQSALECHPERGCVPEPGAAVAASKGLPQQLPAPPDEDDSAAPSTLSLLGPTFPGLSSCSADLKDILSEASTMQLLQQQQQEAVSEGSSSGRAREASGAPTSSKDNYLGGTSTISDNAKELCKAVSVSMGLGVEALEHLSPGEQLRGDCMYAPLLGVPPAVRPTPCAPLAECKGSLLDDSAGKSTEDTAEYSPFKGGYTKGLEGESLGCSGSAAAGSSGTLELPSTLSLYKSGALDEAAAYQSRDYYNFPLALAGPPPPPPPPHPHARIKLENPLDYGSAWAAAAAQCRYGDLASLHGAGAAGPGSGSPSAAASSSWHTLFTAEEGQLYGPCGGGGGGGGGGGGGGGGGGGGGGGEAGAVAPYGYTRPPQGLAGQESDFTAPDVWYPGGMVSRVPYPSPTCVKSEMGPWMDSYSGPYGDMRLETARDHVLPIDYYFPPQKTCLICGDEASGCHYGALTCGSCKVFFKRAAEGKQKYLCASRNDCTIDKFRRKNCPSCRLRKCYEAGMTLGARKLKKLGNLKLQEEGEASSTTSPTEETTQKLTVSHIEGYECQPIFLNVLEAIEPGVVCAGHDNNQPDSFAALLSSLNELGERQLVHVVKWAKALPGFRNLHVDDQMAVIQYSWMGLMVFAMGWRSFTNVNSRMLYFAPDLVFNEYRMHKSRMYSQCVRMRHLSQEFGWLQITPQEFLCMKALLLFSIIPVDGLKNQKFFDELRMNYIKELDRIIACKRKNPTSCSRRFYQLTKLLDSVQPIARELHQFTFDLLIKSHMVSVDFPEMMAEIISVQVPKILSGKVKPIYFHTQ

human PR-B = target: T2, human PR-B (Homo sapiens, UniProt P06401); test: Co-transfection assay, PR agonist and antagonist activity, CV-1 cells; assay type: cell-based; conditions: for EC50: read-out: PR Agonist CV-1 Cells Potency; for IC50: read-out: PR Antagonist CV-1 Cells Potency;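 on all read-outs here: luciferase reporter driven by a hormone response element, co-transfected with human PR-B into CV-1 monkey kidney cells, agonists raise and antagonists lower the reporter signal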
T2 construct: expressed in transfected cells; host or cells: CV-1 cells (African green monkey kidney fibroblasts), transient transfection
T2 sequence (P06401 1-933): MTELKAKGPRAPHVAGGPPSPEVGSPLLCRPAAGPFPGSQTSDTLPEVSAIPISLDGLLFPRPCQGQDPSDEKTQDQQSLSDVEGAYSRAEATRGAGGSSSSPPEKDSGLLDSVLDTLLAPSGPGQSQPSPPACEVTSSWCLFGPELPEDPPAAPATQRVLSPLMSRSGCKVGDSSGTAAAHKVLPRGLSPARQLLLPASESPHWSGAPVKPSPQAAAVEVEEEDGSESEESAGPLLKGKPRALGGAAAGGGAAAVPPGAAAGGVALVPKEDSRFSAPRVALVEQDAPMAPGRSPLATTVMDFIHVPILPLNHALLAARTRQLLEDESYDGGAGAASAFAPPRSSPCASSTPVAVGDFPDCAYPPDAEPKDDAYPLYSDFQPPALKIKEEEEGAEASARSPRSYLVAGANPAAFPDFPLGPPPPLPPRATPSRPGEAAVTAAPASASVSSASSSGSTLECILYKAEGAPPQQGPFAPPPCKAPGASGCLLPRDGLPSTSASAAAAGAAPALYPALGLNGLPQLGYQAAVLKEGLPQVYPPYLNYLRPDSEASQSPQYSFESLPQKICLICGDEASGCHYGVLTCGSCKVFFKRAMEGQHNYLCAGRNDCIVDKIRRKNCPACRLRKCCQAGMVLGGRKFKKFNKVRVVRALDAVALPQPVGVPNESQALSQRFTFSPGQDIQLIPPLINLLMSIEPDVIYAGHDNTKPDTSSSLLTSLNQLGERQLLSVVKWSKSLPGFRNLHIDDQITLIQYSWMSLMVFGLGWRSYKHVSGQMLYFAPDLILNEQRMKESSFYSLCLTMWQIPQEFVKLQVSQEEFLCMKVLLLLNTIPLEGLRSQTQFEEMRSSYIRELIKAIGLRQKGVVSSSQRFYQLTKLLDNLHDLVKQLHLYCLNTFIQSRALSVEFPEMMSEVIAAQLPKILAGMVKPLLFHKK

[2] = target: T3, human progesterone receptor A form (PR-A) (Homo sapiens, UniProt P06401); test: PR binding assay, baculovirus extract, [3H] progesterone; conditions: read-out: PR Binding Ki
T3 sequence (P06401 1-769 isoform P06401-2): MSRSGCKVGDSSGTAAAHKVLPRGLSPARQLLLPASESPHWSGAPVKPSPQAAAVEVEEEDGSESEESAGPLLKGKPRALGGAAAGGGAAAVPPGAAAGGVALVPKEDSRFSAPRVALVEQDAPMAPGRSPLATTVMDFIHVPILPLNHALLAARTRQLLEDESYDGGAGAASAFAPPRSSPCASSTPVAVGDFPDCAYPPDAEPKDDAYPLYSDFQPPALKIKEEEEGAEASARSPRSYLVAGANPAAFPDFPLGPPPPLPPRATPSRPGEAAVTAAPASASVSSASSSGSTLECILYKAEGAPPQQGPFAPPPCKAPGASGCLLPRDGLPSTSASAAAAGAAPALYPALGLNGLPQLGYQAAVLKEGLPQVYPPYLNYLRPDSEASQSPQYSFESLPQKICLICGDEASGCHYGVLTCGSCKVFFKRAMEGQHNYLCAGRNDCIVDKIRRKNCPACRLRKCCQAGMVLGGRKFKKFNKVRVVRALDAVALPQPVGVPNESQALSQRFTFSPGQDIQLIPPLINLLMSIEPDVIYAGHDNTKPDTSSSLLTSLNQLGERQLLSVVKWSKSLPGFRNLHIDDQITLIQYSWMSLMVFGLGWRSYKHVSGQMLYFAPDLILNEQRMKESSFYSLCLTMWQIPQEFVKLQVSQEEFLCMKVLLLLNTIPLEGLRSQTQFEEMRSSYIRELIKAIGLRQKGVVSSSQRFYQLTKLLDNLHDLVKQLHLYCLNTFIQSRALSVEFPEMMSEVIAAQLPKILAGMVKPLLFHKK

[3] = agonist mode, percent maximal response relative to reference agonist progesterone
[4] = antagonist mode, progesterone at its EC50, % maximal inhibition

Row | Molecule | AR Agonist CV-1 Cells Efficacy (%) ([1]; Table 2) | AR Antagonist CV-1 Cells Efficacy (%) ([1]; Table 2, antagonist mode) | PR Agonist CV-1 Cells Efficacy (%) (human PR-B) | PR Antagonist CV-1 Cells Efficacy (%) (human PR-B) | Ki [2] [nM] | EC50 (human PR-B; agonist mode) [nM] | IC50 (human PR-B) [nM] | also measured
1 | 8-(4-Chlorobenzoyl)-5-trifluoromethyl-7-pyridono[5,6-e]indoline [Compound 420] | 40% | 80 | – | – | – | – | – | –
2 | 8-Bromo-12-dihydro-2,2,4-trimethylindeno[1,2-]quinoline [Compound 117] | – | – | – | – | – | – | – | PR Agonist CV-1 Cells Efficacy (%) (human PR-B; [3]): na (na = not active (i.e. efficacy or <20 and potency of >10,000)); PR Antagonist CV-1 Cells Efficacy (%) (human PR-B; [4]): 68%
3 | CC1=CC(C)(C)Nc2ccc3c(c21)C(C)Oc1ccc(Cl)cc1-3 (racemic) [Compound 332, (R/S)-9-Chloro-1,2-dihydro-2,2,4,5-tetramethyl-5H-chromeno[3,4-f]quinoline] | – | – | 138% | na (na = not active (i.e. efficacy or <20 and potency of >10,000)) | – | – | – | –
4 | CC1(C)Nc2ccc3c(c2C(=O)C1(C)C)C(c1ccc(Cl)cc1)Oc1ccccc1-3 (racemic) [Compound 379, (R/S)-5-(4-Chlorophenyl)-1,2,3,4-tetrahydro-2,2,3,3-tetramethyl-5H-chromeno[3,4-f]-4-quinolinone] | – | – | na (na = not active (i.e. efficacy or <20 and potency of >10,000)) | 87% | 25 | > 10000 | 350 | –
5 | CCCCC1Oc2ccccc2-c2ccc3c(c21)C(C)C(O)(CCCC)C(C)(C)N3 (racemic) [Compound 385, (R/S)-3,5-Dibutyl-1,2,3,4-tetrahydro-3-hydroxy-2,2,4-trimethyl-5H-chromeno[3,4-f]quinoline] | – | – | 27% | 45% | 31 | 82 | 2300 | –
6 | CC1C(=O)C(C)(C)Nc2ccc3c(c21)/C(=C/c1cccc(F)c1)Oc1ccccc1-3 (racemic) [Compound 389, (Z)-(R/S)-5-(3-Fluorobenzylidene)-1,2,3,4-tetrahydro-2,2,4-trimethyl-5H-chromeno[3,4-f]-3-quinolinone] | – | – | 133% | na (na = not active (i.e. efficacy or <20 and potency of >10,000)) | 4 | 17 | > 10000 | –
7 | CCCO[C@@H]1[C@@H](C)c2c(ccc3c2[C@H](c2ccc(Cl)cc2)Oc2ccccc2-3)NC1(C)C (racemic) [Compound 400, (R/S-3l,4u,5u)-5-(4-Chlorophenyl)-1,2,3,4-tetrahydro-3-propyloxy-2,2,4-trimethyl-5H-chromeno[3,4-f]quinoline] | – | – | na (na = not active (i.e. efficacy or <20 and potency of >10,000)) | 68% | 14 | > 10000 | 370 | –
8 | C[C@H]1C(=O)C(C)(C)Nc2ccc3c(c21)O[C@H](c1ccccc1)c1ccccc1-3 (relative stereo) [Compound 391, (R/S-4l,6l)-1,2,3,4-Tetrahydro-2,2,4-trimethyl-6-phenyl-5H-isochromeno[3,4-f]-3-quinolinone] | – | – | – | – | – | – | – | PR Agonist CV-1 Cells Efficacy (%) (human PR-B; [3]): na (na = not active (i.e. efficacy or <20 and potency of >10,000)); PR Antagonist CV-1 Cells Efficacy (%) (human PR-B; [4]): 65%
9 | CC1C(=O)C(C)(C)Nc2ccc3c(c21)C(c1ccc(Cl)cc1)Oc1ccccc1-3 (single isomer, unassigned; (+)) [Compound 381, (+)-(R*-4l,5l)-5-(4-Chlorophenyl)-1,2,3,4-tetrahydro-2,2,4-trimethyl-5H-chromeno[3,4-f]-3-quinolinone] | – | – | – | na (na = not active (i.e. efficacy or <20 and potency of >10,000)) | – | – | – | –
10 | CC1=CC(C)(C)Nc2ccc(-n3cnc(Cl)c3Cl)cc21 [Compound 103, 6-(4,5-Dichloroimidazol-1-yl)-1,2-dihydro-2,2,4-trimethylquinoline] | – | – | na (na = not active (i.e. efficacy or <20 and potency of >10,000)) | 91% | 372 | > 10000 | 780 | –
11 | CC1=CC(C)(C)Nc2cc3[nH]c(=O)cc(C(F)(F)F)c3cc21 [Compound 247, 1,2-Dihydro-2,2,4-trimethyl-6-trifluoromethyl-8-pyridono[5,6-g]quinoline] | 23% | 69 | – | – | – | – | – | –
12 | CC1=CC(C)(C)Nc2ccc(-c3cc(F)cc(C#N)c3)cc21 [Compound 271, 6-(3-Cyano-5-fluorophenyl)-1,2-dihydro-2,2,4-trimethylquinoline] | – | – | na (na = not active (i.e. efficacy or <20 and potency of >10,000)) | 78% | – | – | – | –
13 | O=c1cc(C(F)(F)F)c2cc3c(cc2[nH]1)NCC3 [Compound 419, 5-Trifluoromethyl-7-pyridono[5,6-e]indoline] | 29% | 74 | – | – | – | – | – | –
14 | CC1(C)CNc2cc3[nH]c(=O)cc(C(F)(F)F)c3cc2C1 [Compound 437, 1,2,3,4-Tetrahydro-3,3-dimethyl-6-trifluoromethyl-8-pyridono[5,6-g]quinoline] | na (na = not active (i.e. efficacy of <20 and potency of >10,000)) | 72 | – | – | – | – | – | AR Agonist CV-1 Cells Efficacy (%) [1]: na (na = not active (i.e. efficacy of <20 and potency of >10,000)); activity as AR antagonists compared with 2-OH-flutamide ([1]; antagonist mode): equivual or better activity
15 | (R/S)-4-Ethyl-1,2,3,4-tetrahydro-1-methyl-8-pyranono[5,6-g]quinoline [Compound 416] | 88% | 24 | – | – | – | – | – | AR Agonist CV-1 Cells Efficacy (%) [1]: 88%; AR Antagonist CV-1 Cells Efficacy (%) ([1]; antagonist mode, DHT at its EC50): 24%

Reference: US6448405B1, “Steroid receptor modulator compounds and methods” (Ligand Pharmaceuticals Incorporated, priority 1994, dated 2002)
